{
  "source": "patent US20030134901A1",
  "about": "“Lipoxin compounds and their use in treating cell proliferative disorders” (priority 1993, published 2003)",
  "system": "PLD activity in differentiated HL-60 cells",
  "assay": "PLD activity (PEt formation) in differentiated HL-60 cells",
  "format": "cell-based, human",
  "conditions": "differentiated HL-60 cells, biphasic response",
  "procedure": "Cell cultures and differentiation. HL-60 cells were seeded in RPMI medium supplemented with 100 U/ml penicillin, 100 μg/ml streptomycin, and 10% fetal calf serum (Hyclone, Logan, Utah), incubated at 37° C. with 5% CO2 atmosphere in 250 ml flasks. Individual flasks containing ˜[…] next received dimethyl sulfoxide (DMSO) (1.12% v/v, 120 h) or retinoic acid (RA) (1 μM, 120 h) or phorbol myristate acetate (PMA) (20 nM, 48 h). Before performing binding assays, cells were washed twice in phosphate buffered saline (PBS), Ca^2+- and Mg^2+-free, enumerated and suspended at 20×10^6 cells/ml in Tris buffer (10 mM), pH 7.4 (Fiore, S. et al.(1992) J. Biol. Chem. 267:16168). Nitro blue tetrazolium reduction was performed to monitor induction of polymorphonuclear phenotype as in (Imaizumi, M. and Breitman, T. R. (1986) Blood 67:1273), and cell adherence was determined for induction of macrophage-like phenotype (Collins, S. J. (1987) Blood 70:1273). Human umbilical vein endothelial cells (HUVEC) maintained in culture third passage were obtained from Dr. M. Gimbrone (Brigham and Women's Hospital Department of Pathology).\nPLD activity. Human PMN and HL-60 cells (50×10^6 cells/ml) prepared as above were incubated with ^3H-myristic acid or ^3H-palmitic acid (8 μCi/50×10^6 cells) for 40-60 min at 37° C. in PBS. Cell uptake ranged between 60-80% of added label, 7.1±4.2% (n=10; mean ±S.D.) and 32.6±10.3% (n=6; mean ±S.D.) into total phospholipid classes of PMN and HL-60 cells, respectively. Incubations were carried out at 37° C. (10 ×10^6 cells/ml PBS). […] At indicated times, incubations were stopped by adding 3.5 ml of ice cold CHCl3/MeOH (2/5, v/v) containing 1-^14C-arachidonic acid (5,000 cpm) used here as internal standard to quantitate extraction recoveries. […] Regions corresponding to PA, PEt, and internal standards were scraped and quantified by liquid scintillation counting. […] All values reported for PEt formation in Tables 4 and 5 were calculated by subtracting the dpm obtained in the presence of […]. […]",
  "data": [
    {"smiles": "CCCCC[C@H](O)/C=C/C=C\\C=C\\C=C\\[C@@H](O)[C@@H](O)CCCC(=O)O", "note": "[LXA4, (5S, 6R, 15S)-trihydroxy-7E, 9E, 11Z, 13E-eicosatetraenoic acid]", "values": [
      {"measurement": "concentration of apparent maximum, PEt formation", "result": "10^−9 M"}
    ]}
  ]
}
